Active and inactive are the calls of the source. No rule for the calls is given here.
The molecules below were run against Luciferin 4-monooxygenase (Photinus pyralis) (UniProt P08659) (assay: firefly luciferase inhibitors, late-stage follow-up, artefact control for HSP90 inhibitor project, biochemical, luminescence, dose response (AID 2747)). Settings: purified firefly luciferase, counterscreen.
Sequence of Luciferin 4-monooxygenase (Photinus pyralis) (P08659 whole entry, looked up): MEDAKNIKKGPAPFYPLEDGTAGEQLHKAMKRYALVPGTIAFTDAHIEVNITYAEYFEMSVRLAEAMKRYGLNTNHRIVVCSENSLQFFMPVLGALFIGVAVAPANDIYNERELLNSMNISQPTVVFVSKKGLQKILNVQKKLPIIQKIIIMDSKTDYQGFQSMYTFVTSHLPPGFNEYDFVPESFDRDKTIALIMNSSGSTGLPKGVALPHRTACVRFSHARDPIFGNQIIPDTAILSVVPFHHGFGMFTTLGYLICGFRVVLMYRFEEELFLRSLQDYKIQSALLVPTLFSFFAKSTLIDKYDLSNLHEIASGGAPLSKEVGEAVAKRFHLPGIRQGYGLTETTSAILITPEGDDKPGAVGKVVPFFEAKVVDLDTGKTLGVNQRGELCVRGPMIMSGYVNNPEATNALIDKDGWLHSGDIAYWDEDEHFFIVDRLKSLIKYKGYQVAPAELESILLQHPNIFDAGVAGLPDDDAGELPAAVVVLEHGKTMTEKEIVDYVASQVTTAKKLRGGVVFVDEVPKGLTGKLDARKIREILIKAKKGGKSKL

**Q.** How did the IC50 turn out when `CCOC(=O)c1csc(NC(=O)c2cc3ccccc3o2)n1` was run?
**A.** The IC50 was > 60 µM (inactive).

**Q.** How did the IC50 turn out when `COc1cc(C=NNc2ccc(Cl)c(C(=O)O)c2)ccc1OC(=O)c1ccc(F)cc1` was run?
**A.** Its IC50 is > 60 µM (inactive).

**Q.** `Cc1cc(NO)nc(-c2ccc(Br)cc2)n1` was tested. Which IC50 did it give?
**A.** Its IC50 is > 60 µM (inactive).

**Q.** With `CCOC(=O)C1=C(c2ccc(OC)cc2)C(=O)c2ccccc2C1=O` as the molecule, how does the IC50 read?
**A.** Its IC50 is > 60 µM (inactive).

**Q.** Which IC50 does the source give for `CCc1ccc(OCc2ccc(C(=O)OC)o2)cc1` here?
**A.** Its IC50 is > 60 µM (inactive).

**Q.** Which IC50 does the source give for `COc1ccccc1NC(=O)c1coc(=O)c(Br)c1` here?
**A.** Its IC50 is > 60 µM (inactive).

**Q.** Which IC50 does the source give for `CC(=O)Nc1ccccc1OCC(=O)c1cc(C)n(Cc2cccs2)c1C` here?
**A.** The IC50 was > 60 µM (inactive).

**Q.** With `Cc1c(-c2nc(-c3ccc(C(C)(C)C)cc3)no2)n(C)oc1=O` as the molecule, how does the IC50 read?
**A.** Its IC50 is > 60 µM (inactive).

**Q.** `COC(=O)c1ccccc1OCCCOc1ccc(C)cc1OC` was tested. Which IC50 did it give?
**A.** Its IC50 is > 60 µM (inactive).

**Q.** With `Cc1c(-c2nc(-c3ccc(C(F)(F)F)cc3)no2)n(C)oc1=O` as the molecule, how does the IC50 read?
**A.** The IC50 was > 60 µM (inactive).

Reference: PubChem BioAssay AID2747 (The Scripps Research Institute Molecular Screening Center, 2010)
